Measurements as given in US8324457B2, “Soybean event 3560.4.3.5 and compositions and methods for the identification and/or detection thereof” (Pioneer Hi-Bred International, Inc., priority 2006, dated 2012).

How the values were obtained:
[1] = tested on: 3560.4.3.5 soybean; assay: ALS inhibitor herbicide tolerance field trials, crop response rating; parameters: species or system Glycine max; conditions: in vivo
Source text: ALS inhibitor herbicide tolerance of the gm-hra gene was compared to sulfonylurea tolerant soybeans (STS®) by growing T4 plants of event 3560.4.3.5 and a STS® cultivar. […] Spray treatments were applied at the V3 growth stage and consisted of one of the following: an unsprayed control, 8.8 g ai ha^−1 rimsulfuron (N-[[(4,6-dimethoxy-2-pyrimidinyl)amino]carbonyl]-3-(ethylsulfonyl)-2-pyridinesulfonamide), 8.8 g ai ha^−1 tribenuron methyl (methyl 2-[[[[(4-methoxy-6-methyl-1,3,5-triazin-2-yl)methylamino]carbonyl]amino]sulfonyl]benzoate), or 30.0 g ai ha^−1 chlorimuron ethyl (ethyl 2-[[[[(4-chloro-6-methoxypyrimidin-2-yl)amino]carbonyl]amino]sulfonyl]benzoate)+9.67 g ai ha^−1 thifensulfuron methyl. […] Plots were evaluated for crop response at 7 DAT and 14 DAT, and assigned a visual response score from 0% to 100% response. Crop response data were analyzed using the mixed model ANOVA procedure of SAS.
ALS inhibitor herbicide tolerance trials were completed at two separate locations. Plants from the T5 generation of event 3560.4.3.5 and a STS® cultivar were grown in a RCB design in a split plot arrangement with three replications of paired 2.4 m rows (76.2 cm row spacing). […] Crop response data were analyzed using the mixed model ANOVA procedure of SAS. […]

[2] = tested on: transgenic event 3560.4.3.5 soybean; assay: Greenhouse herbicide tolerance of T0 and T1 plants, visual rating 10 days after spray; type: in vivo, Glycine max; conditions: T1 tolerant plants, scale to 9 = no response
Source text: Selected events were advanced at the T1 generation for herbicide tolerance confirmation in greenhouses. Plants were sprayed at the V3 growth stage with either 1.68 kg ae ha^−1 glyphosate, 60 g ai ha^−1 thifensulfuron methyl(methyl 3-[[[[(4-methoxy-6-methyl-1,3,5-triazin-2-yl)amino]carbonyl]amino]sulfonyl]-2-thiophenecarboxylate), or a sequential […] […] […] Since the T1 events were segregating, only the non-susceptible plants were scored, and an average rating of tolerant plants within each event was calculated.
T0 3560.4.3.5 soybean were evaluated for glyphosate tolerance.
The 3560.4.3.5 event was advanced to the T1 generation in a greenhouse to confirm herbicide tolerance. The 3560.4.3.5 event had tolerance after application of 1.68 kg ae ha^−1 glyphosate, after application of 60.0 g ai ha^−1 thifensulfuron methyl, and after a sequential application of 70 g ai ha^−1 thifensulfuronmethyl at V3, […]

[3] = tested on: seedlings that possessed the 3560.4.3.5 event; assay: Chlorsulfuron herbicide seedling test on germination paper; type: in vivo, Glycine max; conditions: germination paper saturated with 20 ml/l of a 66.7 mg/l chlorsulfuron stock, pH 7.5; observed 10 days after initial treatment
[4] = tested on: seedlings that lacked the event; assay: as above; type: in vivo, Glycine max; conditions: germination paper saturated with 20 ml/l of a 66.7 mg/l chlorsulfuron stock, pH 7.5; observed 10 days after initial treatment

COC(=O)c1ccccc1S(=O)(=O)NC(=O)Nc1nc(C)nc(OC)n1 [Metsulfuron methyl, methyl 2-[[[[(4-methoxy-6-methyl-1,3,5-triazin-2-yl)amino]carbonyl]amino]sulfonyl]benzoate]
crop response of 3560.4.3.5 soybean compared to STS, in words [1]: significantly lower crop response compared to STS®

CCS(=O)(=O)c1cccnc1S(=O)(=O)NC(=O)Nc1nc(OC)cc(OC)n1 [Rimsulfuron, N-[[(4,6-dimethoxy-2-pyrimidinyl)amino]carbonyl]-3-(ethylsulfonyl)-2-pyridinesulfonamide]
crop response of 3560.4.3.5 soybean compared to STS, in words [1]: significantly lower crop response compared to STS®

COC(=O)c1sccc1S(=O)(=O)NC(=O)Nc1nc(C)nc(OC)n1 [Thifensulfuron methyl, methyl 3-[[[[(4-methoxy-6-methyl-1,3,5-triazin-2-yl)amino]carbonyl]amino]sulfonyl]-2-thiophenecarboxylate]
average visual response rating ([2]; thifensulfuron methyl 60.0 g ai ha-1 + NIS + AMS at V3, 10 days after application): 7.0
average visual response rating, first score of sequential application ([2]; thifensulfuron methyl 70 g ai ha-1 + NIS + AMS at V3, 10 days after the V3 application): 8.0

COc1nc(C)nc(NC(=O)NS(=O)(=O)c2ccccc2Cl)n1 [chlorsulfuron, 2-chloro-N-[[(4-methoxy-6-methyl-1,3,5-triazin-2-yl)amino]-carbonyl]benzenesulfonamide]
seedling response in chlorsulfuron solution [3]: germinated and grew normally
seedling response in chlorsulfuron solution [4]: created hooked unifoliolate leaves that did not expand and develop any further
